Measured values as given in paper PMC5754384, “Evaluation of carboxamide-type synthetic cannabinoids as CB1/CB2 receptor agonists: difference between the enantiomers” (Forensic Toxicology, 2017).
“Also recorded” adds a separate entry of the source.

Columns and labels:
[1] = molecular target: human CB1 receptor (Homo sapiens, UniProt P21554); test: [35S]GTPγS binding assay, CB1 receptor agonistic activity; format: biochemical; conditions: for Human CB1 receptor S/R ratio: EC50 value ratio of an (S)-enantiomer to the corresponding (R)-enantiomer; for CB1 receptor agonist activity (in words): [35S]GTPγS binding, maximum tested concentration 1.0 × 10^−4 M; for difference in the EC50 levels between the enantiomers to activate the CB1 receptor: (S)-enantiomer lower than (R)-enantiomer
Chain of human CB1 receptor (P21554 whole entry): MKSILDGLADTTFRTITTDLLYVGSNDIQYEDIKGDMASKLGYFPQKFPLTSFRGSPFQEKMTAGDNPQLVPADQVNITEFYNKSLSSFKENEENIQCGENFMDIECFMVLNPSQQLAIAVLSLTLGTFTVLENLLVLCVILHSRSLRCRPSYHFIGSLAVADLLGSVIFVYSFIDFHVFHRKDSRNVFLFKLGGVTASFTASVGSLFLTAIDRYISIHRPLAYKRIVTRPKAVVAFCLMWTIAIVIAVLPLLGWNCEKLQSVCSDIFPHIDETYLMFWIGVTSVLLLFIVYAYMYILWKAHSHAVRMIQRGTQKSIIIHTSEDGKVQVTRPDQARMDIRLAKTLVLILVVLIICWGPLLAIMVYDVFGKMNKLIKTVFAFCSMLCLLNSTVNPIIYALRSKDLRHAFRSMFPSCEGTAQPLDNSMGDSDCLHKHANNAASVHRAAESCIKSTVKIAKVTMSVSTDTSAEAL
Experimental: (§1) For the evaluation of CB1/CB2 cannabinoid receptor activity, [^35S]GTPγS binding assays were performed. These assays were performed at ADME and Tox. Research Institute, Sekisui Medical Co., Ltd. (Tokai-mura, Ibaraki, Japan).

[2] = molecular target: human CB2 receptor (Homo sapiens, UniProt P34972); test: [35S]GTPγS binding assay, CB2 receptor agonistic activity; format: biochemical; conditions: for Selective index (CB1/CB2): EC50 ratio of the CB1 to CB2; for Human CB2 receptor S/R ratio: EC50 value ratio of an (S)-enantiomer to the corresponding (R)-enantiomer; for EC50: Human CB2 receptor EC50, [35S]GTPγS binding, tested 1 × 10^−11 to 1 × 10^−4 M; for CB2 receptor agonist activity (in words): [35S]GTPγS binding
Chain of human CB2 receptor (P34972 whole entry): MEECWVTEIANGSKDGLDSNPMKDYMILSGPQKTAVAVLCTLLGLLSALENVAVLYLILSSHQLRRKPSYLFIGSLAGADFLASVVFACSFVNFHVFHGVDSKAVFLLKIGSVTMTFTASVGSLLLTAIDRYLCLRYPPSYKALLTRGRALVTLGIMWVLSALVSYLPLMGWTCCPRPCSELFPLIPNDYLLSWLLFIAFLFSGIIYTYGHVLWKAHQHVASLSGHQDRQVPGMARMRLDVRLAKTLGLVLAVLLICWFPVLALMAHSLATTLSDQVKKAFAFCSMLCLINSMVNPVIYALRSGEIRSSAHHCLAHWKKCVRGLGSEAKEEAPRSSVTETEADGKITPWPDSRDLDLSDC
Experimental: as §1

| Structure (SMILES) | EC50 [1] | Human CB1 receptor S/R ratio [1] | Selective index (CB1/CB2) [2] | Human CB2 receptor S/R ratio [2] | EC50 [2] | CB1 receptor agonist activity (in words) [1] | selective index of CB1/CB2 ([2]; CB2 over CB1, from EC50 values) | CB2 receptor agonist activity (in words) [2] | difference in the EC50 levels between the enantiomers to activate the CB1 receptor [1] |
| --- | --- | --- | --- | --- | --- | --- | --- | --- | --- |
| CCOC(=O)[C@H](NC(=O)c1nn(CCCCCF)c2ccccc12)C(C)C [(R)5F-EMB-PINACA, Ethyl [1-(5-fluoropentyl)-1H-indazole-3-carbonyl]-D-valinate] | 35.9 nM | 0.14 | 21.4 | 4.1 | 1.68 nM | – | – | – | – |
| NC(=O)[C@@H](Cc1ccccc1)NC(=O)c1nn(CC2CCCCC2)c2ccccc12 [(R)-N-(1-Amino-1-oxo-3-phenylpropan-2-yl)-1-(cyclohexylmethyl)-1H-indazole-3-carboxamide] | 33700 nM | 0.0074 | 68.8 | 0.017 | 490 nM | – | – | – | – |
| CC(C)[C@@H](NC(=O)c1nn(Cc2ccccc2F)c2ccccc12)C(N)=O [(R)AB-FUBINACA 2-fluorobenzyl isomer, (R)-N-(1-Amino-3-methyl-1-oxobutan-2-yl)-1-(2-fluorobenzyl)-1H-indazole-3-carboxamide] | 14.1 nM | 0.21 | 22.5 | 3.9 | 0.627 nM | – | – | – | – |
| CCOC(=O)[C@H](NC(=O)c1nn(Cc2ccc(F)cc2)c2ccccc12)C(C)C [(R)EMB-FUBINACA, Ethyl [1-(4-fluorobenzyl)-1H-indazole-3-carbonyl]-D-valinate] | 30.7 nM | 0.015 | 35.6 | 2.5 | 0.863 nM | – | – | – | – |
| COC(=O)[C@H](NC(=O)c1cn(Cc2ccc(F)cc2)c2ccccc12)C(C)(C)C [(R)MDMB-FUBICA, Methyl (R)-2-[1-(4-fluorobenzyl)-1H-indole-3-carboxamido]-3,3-dimethylbutanoate] | > 100000 nM | <0.0001 | >30,000 | 0.35 | 3.1 nM | lacks CB1 receptor activity; also recorded: not confirmed; also recorded: no [^35S]GTPγS binding activity | more than 3.2 × 10^4 fold | function as an agonist of the CB2 receptor; also recorded: functioned only on the CB2 receptor as an agonist | – |
| CCOC(=O)[C@@H](NC(=O)c1nn(CCCCCF)c2ccccc12)C(C)C [(S)5F-EMB-PINACA, Ethyl [1-(5-fluoropentyl)-1H-indazole-3-carbonyl]-L-valinate] | 4.96 nM | 0.14 | 0.718 | 4.1 | 6.91 nM | – | – | – | – |
| NC(=O)[C@H](Cc1ccccc1)NC(=O)c1nn(CC2CCCCC2)c2ccccc12 [(S)-N-(1-Amino-1-oxo-3-phenylpropan-2-yl)-1-(cyclohexylmethyl)-1H-indazole-3-carboxamide] | 251 nM | 0.0074 | 31.0 | 0.017 | 8.09 nM | – | – | – | 134 fold |
| CC(C)[C@H](NC(=O)c1nn(Cc2ccccc2F)c2ccccc12)C(N)=O [(S)AB-FUBINACA 2-fluorobenzyl isomer, (S)-N-(1-Amino-3-methyl-1-oxobutan-2-yl)-1-(2-fluorobenzyl)-1H-indazole-3-carboxamide] | 2.92 nM | 0.21 | 1.20 | 3.9 | 2.44 nM | – | – | – | – |
| CCOC(=O)[C@@H](NC(=O)c1nn(Cc2ccc(F)cc2)c2ccccc12)C(C)C [(S)EMB-FUBINACA, Ethyl [1-(4-fluorobenzyl)-1H-indazole-3-carbonyl]-L-valinate] | 0.458 nM | 0.015 | 0.214 | 2.5 | 2.14 nM | – | – | – | – |
| COC(=O)[C@@H](NC(=O)c1cn(Cc2ccc(F)cc2)c2ccccc12)C(C)(C)C [(S)MDMB-FUBICA, Methyl (S)-2-[1-(4-fluorobenzyl)-1H-indole-3-carboxamido]-3,3-dimethylbutanoate] | 9.72 nM | <0.0001 | 9.08 | 0.35 | 1.07 nM | could activate both of these receptors at nanomolar levels | – | could activate both of these receptors at nanomolar levels | – |
| COC(=O)C(NC(=O)c1cn(Cc2ccc(F)cc2)c2ccccc12)C(C)(C)C (stereo not drawn) [MDMB-FUBICA, methyl 2-[1-(4-fluorobenzyl)-1H-indole-3-carboxamido]-3,3-dimethylbutanoate] | – | – | – | – | – | – | – | – | more than 10,000 fold |
